#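 Test compounds were applied to cells in 96-well plates for 48 hours at 5 doses. GI50: concentration for 50% inhibition of growth.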 The source made the active and inactive calls. No stated cut-off is given here; in the data, active = GI50 up to about 1.1 µM and inactive = higher.
# Columns and labels:
# Test in all cases: growth of human tumour cells (NCI), 48 h
# IGROV-1 = tested on: IGROV-1
# MOLT-4 = tested on: MOLT-4
# RXF 393 = tested on: RXF 393
# HCT-15 = tested on: HCT-15
# SF-268 = tested on: SF-268
# MDA-MB-435 = tested on: MDA-MB-435
# A549 = tested on: A549
# 786-0 = tested on: 786-0
# DU-145 = tested on: DU-145
# TK-10 = tested on: TK-10
# UACC-62 = tested on: UACC-62
# SR = tested on: SR
# CAKI-1 = tested on: CAKI-1
# Malme-3M = tested on: Malme-3M
# NCI/ADR-RES = tested on: NCI/ADR-RES
# UO-31 = tested on: UO-31
# NCI-H23 = tested on: NCI-H23
# SF-295 = tested on: SF-295
# A498 = tested on: A498
# SW-620 = tested on: SW-620
# T47D = tested on: T47D
# HCC 2998 = tested on: HCC 2998
# ACHN = tested on: ACHN
# SK-OV-3 = tested on: SK-OV-3
# Hs-578T = tested on: Hs-578T
# OVCAR-3 = tested on: OVCAR-3
# EKVX = tested on: EKVX
# NCI-H522 = tested on: NCI-H522
# HOP-62 = tested on: HOP-62
# OVCAR-4 = tested on: OVCAR-4
# HT-29 = tested on: HT-29
# MDA-MB-231 = tested on: MDA-MB-231
# BT-549 = tested on: BT-549
# MDA-N = tested on: MDA-N
# RPMI-8226 = tested on: RPMI-8226
# K562 = tested on: K562
# MCF7 = tested on: MCF7
# M14 = tested on: M14
# SK-MEL-28 = tested on: SK-MEL-28
# LOX IMVI = tested on: LOX IMVI
# SK-MEL-2 = tested on: SK-MEL-2
# SNB-19 = tested on: SNB-19
# SK-MEL-5 = tested on: SK-MEL-5
# NCI-H460 = tested on: NCI-H460
# CCRF-CEM = tested on: CCRF-CEM
# SN12C = tested on: SN12C
# OVCAR-8 = tested on: OVCAR-8
# HCT-116 = tested on: HCT-116
# KM12 = tested on: KM12
# COLO 205 = tested on: COLO 205
# HL-60 = tested on: HL-60
# SF-539 = tested on: SF-539
# U-251 = tested on: U-251
# PC-3 = tested on: PC-3
# OVCAR-5 = tested on: OVCAR-5
# UACC-257 = tested on: UACC-257
smiles,measurement,setting,value
NC(=O)/C=c1/c2ccccc2n2nc3ccccc3c12,GI50,IGROV-1,10.6 µM (inactive)
same,GI50,MOLT-4,2.69 µM (inactive)
same,GI50,RXF 393,17.1 µM (inactive)
same,GI50,HCT-15,12.2 µM
same,GI50,SF-268,10.2 µM (inactive)
same,GI50,MDA-MB-435,16 µM (inactive)
same,GI50,A549,31.7 µM (inactive)
same,GI50,786-0,8.67 µM (inactive)
same,GI50,DU-145,37.8 µM (inactive)
same,GI50,TK-10,23.3 µM (inactive)
same,GI50,UACC-62,19.4 µM (inactive)
same,GI50,SR,2.68 µM (inactive)
same,GI50,CAKI-1,20.1 µM (inactive)
same,GI50,Malme-3M,21.9 µM (inactive)
same,GI50,NCI/ADR-RES,16.1 µM (inactive)
same,GI50,UO-31,19.2 µM (inactive)
same,GI50,NCI-H23,22.1 µM (inactive)
same,GI50,SF-295,31.1 µM (inactive)
same,GI50,A498,32.1 µM (inactive)
same,GI50,SW-620,17.5 µM (inactive)
same,GI50,T47D,7.01 µM (inactive)
same,GI50,HCC 2998,17 µM (inactive)
same,GI50,ACHN,13.6 µM (inactive)
same,GI50,SK-OV-3,16.3 µM (inactive)
same,GI50,Hs-578T,31.2 µM (inactive)
same,GI50,OVCAR-3,15.7 µM (inactive)
same,GI50,EKVX,14.4 µM (inactive)
same,GI50,NCI-H522,14.1 µM (inactive)
same,GI50,HOP-62,26.1 µM (inactive)
same,GI50,OVCAR-4,10.3 µM (inactive)
same,GI50,HT-29,15.9 µM (inactive)
same,GI50,MDA-MB-231,2.76 µM (inactive)
same,GI50,BT-549,29.9 µM (inactive)
same,GI50,MDA-N,15.6 µM (inactive)
same,GI50,RPMI-8226,4.98 µM (inactive)
same,GI50,K562,15.3 µM (inactive)
same,GI50,MCF7,26.9 µM (inactive)
same,GI50,M14,27.5 µM (inactive)
same,GI50,SK-MEL-28,16.8 µM (inactive)
same,GI50,LOX IMVI,4.78 µM (inactive)
same,GI50,SK-MEL-2,15.6 µM (inactive)
same,GI50,SNB-19,20.1 µM (inactive)
same,GI50,SK-MEL-5,35.6 µM (inactive)
same,GI50,NCI-H460,25.8 µM (inactive)
same,GI50,CCRF-CEM,3.56 µM (inactive)
same,GI50,SN12C,19.1 µM (inactive)
same,GI50,OVCAR-8,8.71 µM (inactive)
same,GI50,HCT-116,4.82 µM (inactive)
same,GI50,KM12,14.3 µM (inactive)
same,GI50,COLO 205,20.4 µM (inactive)
same,GI50,HL-60,3.91 µM (inactive)
same,GI50,SF-539,13.3 µM (inactive)
same,GI50,U-251,12.9 µM (inactive)
same,GI50,PC-3,11 µM (inactive)
same,GI50,OVCAR-5,29.9 µM (inactive)
same,GI50,UACC-257,20.3 µM (inactive)

# Reference: ChEMBL document CHEMBL1201862, “PubChem BioAssay data set” (2004)
